According to ChEMBL document CHEMBL5303304, “EUbOPEN Chemogenomics Library - IncuCyte” (2023):

What was measured:
Assay type in all cases: toxicity, cell-based
HEK-293T = experiment: Incucyte cell viability with HEK293T; settings: human, 10 µM, compound concentration 10 uM
Fibroblast = experiment: Incucyte cell viability with human fibroblast; settings: 10 µM, compound concentration 10 uM
U2OS = experiment: Incucyte cell viability with U2OS; settings: human, 10 µM, compound concentration 10 uM
Note: unitless GR value; below 1 slowed growth and below 0 cell loss.

Structure (SMILES)	Growth Rate (HEK-293T; 6 h, replicate number 1)	Growth Rate (HEK-293T; 6 h, replicate number 2)	Growth Rate (HEK-293T; 12 h, replicate number 1)	Growth Rate (HEK-293T; 12 h, replicate number 2)	Growth Rate (HEK-293T; 18 h, replicate number 1)	Growth Rate (HEK-293T; 18 h, replicate number 2)	Growth Rate (HEK-293T; 24 h, replicate number 1)	Growth Rate (HEK-293T; 24 h, replicate number 2)	Growth Rate (Fibroblast; 6 h, replicate number 1)	Growth Rate (Fibroblast; 6 h, replicate number 2)	Growth Rate (Fibroblast; 12 h, replicate number 1)	Growth Rate (Fibroblast; 12 h, replicate number 2)	Growth Rate (Fibroblast; 24 h, replicate number 2)	Growth Rate (U2OS; 6 h, replicate number 1)	Growth Rate (U2OS; 6 h, replicate number 2)	Growth Rate (U2OS; 12 h, replicate number 1)	Growth Rate (U2OS; 12 h, replicate number 2)	Growth Rate (U2OS; 18 h, replicate number 1)	Growth Rate (U2OS; 18 h, replicate number 2)	Growth Rate (U2OS; 24 h, replicate number 2)	other results
Cc1ccc(S(=O)(=O)Nc2ccc(-n3nc(C(F)(F)F)cc3C(F)(F)F)cc2)cc1	0.36	0.63	0.58	0.66	0.47	0.81	0.62	0.92	-0.21	-1	-1	0.78	0.83	0.01	0.69	0.91	0.8	0.74	0.83	0.72	Growth Rate (Fibroblast; 18 h, replicate number 1): 0.74; Growth Rate (U2OS; 24 h, replicate number 1): 0.84
C[C@@H](Cn1c(=O)[nH]/c(=N\c2ccc(Oc3ccccn3)cc2)n(Cc2ccc(Cl)cc2)c1=O)C(=O)O	0.2	0.62	–	–	0.97	–	–	–	-0.1	-1	–	0.04	0.85	–	0.93	0.97	–	0.99	–	–	Growth Rate (Fibroblast; 18 h, replicate number 2): 0.75; Growth Rate (U2OS; 0 h, replicate number 2): -0.83
O=C(Nc1c(-c2cccs2)nc2ccc(Cl)cn12)c1ccc(Cl)cc1	0.88	–	–	–	–	–	–	–	–	-1	-1	–	–	0.3	0.69	0.64	0.81	0.95	0.75	0.56	Growth Rate (Fibroblast; 0 h, replicate number 1): 0.89; Growth Rate (Fibroblast; 18 h, replicate number 1): 0.47; Growth Rate (U2OS; 24 h, replicate number 1): 0.97
CC1(C)CC(CN2CCC(F)(CNC(=O)c3cc(Cl)cc(Cl)c3)CC2)CCO1 (configuration not stated)	0.4	–	–	–	–	–	–	–	-1	0.34	–	–	0.97	0.71	0.8	0.85	–	–	–	–	Growth Rate (U2OS; 0 h, replicate number 1): -0.43
Cl.Cl.O=C1c2ccccc2C(Cc2ccncc2)(Cc2ccncc2)c2ccccc21	0.32	0.89	0.55	0.97	0.62	0.63	0.6	0.63	–	–	-1	–	0.89	–	0.24	–	0.75	–	0.92	0.88	Growth Rate (Fibroblast; 18 h, replicate number 1): 0.1; Growth Rate (U2OS; 0 h, replicate number 1): -0.47; Growth Rate (U2OS; 0 h, replicate number 2): -0.7
Cc1c(-c2cc(-c3ccccc3Cl)no2)cnn1C1CCNCC1.Cl	-0.95	-0.85	-0.84	-0.43	-0.72	-0.18	-0.68	-0.15	0.11	-1	-1	-0.55	-0.36	0.45	0.01	0.76	0.66	0.87	0.68	0.75	Growth Rate (Fibroblast; 0 h, replicate number 1): 0.68; Growth Rate (Fibroblast; 18 h, replicate number 2): -0.4; Growth Rate (Fibroblast; 24 h, replicate number 1): 0.83; Growth Rate (U2OS; 0 h, replicate number 2): -1; Growth Rate (U2OS; 24 h, replicate number 1): 0.89
